The results in this text go back to US20190134033A1, “PHARMACEUTICAL COMBINATIONS” (Novartis AG, priority 2013, published 2019).

The subject of experiment [1] is TRP-590A-SHSY5Y-XEF (ALK F1174L mutated). The experiment in a line: SY5Y Xenograft, LDK378 and CGM097 alone and combined (FIG. 6). It counts as in vivo.
Experiment [2] concerns p53. Kind of experiment: Induction of p53 and its downstream target genes in ALK mutant and p53 WT neuroblastoma cell lines. In kind it is cell-based. On the procedure: (§1) Compound stocks of LDK378 (compound B) and NVP-CGM097 (compound A) are prepared in DMSO at a final concentration of 10 mM. Working stocks of compound A and compound B are serially diluted in the appropriate cell culture medium to achieve final assay concentrations ranging from 10 μM to 0.039 μM.
(§2) ALK+NB neuroblastoma cell line is disclosed in G. Barone, et al in the journal Clin. Cancer Res., Vol 19, pp 5814-5821 (2013).

For experiment [3], the system named is NB-1 neuroblastoma xenograft. The experiment in a line: NB-1 neuroblastoma in vivo xenograft model, LDK378 and Compound C alone and combined (Example 2, FIG. 8). Particulars: NB1 model, PO QD, LDK378 50 mg/kg, Compound C 20 mg/kg. On the procedure:
The combination of LDK378 (Compound B) and HDM-2/p53 inhibitor (S)-5-(5-Chloro-1-methyl-2-oxo-1,2-dihydro-pyridin-3-yl)-6-(4-chloro-phenyl)-2-(2,4- dimethoxy-pyrimidin-5-yl)-1-isopropyl-5,6-dihydro-1H-pyrrolo[3,4-d]imidazol-4-one (Compound C) were tested in NB-1 neuroblastoma in vivo xenograft model. A total of 5 animals per group were enrolled in efficacy study. For single-agent and combination studies, animals were dosed via oral gavage for both LDK378 and Compound C. LDK378 was formulated in 0.5% CMC/0.5% Tween 80, and Compound C was formulated in Methylcellulose 0.5% w/V in pH 6.8 50 mM phosphate buffer at 20 mg/kg as free base. For NB1 model, the tumors reached approximately 200 mm^3 at day 16 post implantation. On Day 16, tumor-bearing mice were randomized into treatment groups.
Animals were weighed at dosing day(s) and dose was body weight adjusted, dosing volume was 10 ml/kg. Tumor dimensions and body weights were collected at the time of randomization and twice weekly thereafter for the study duration. The following data was provided after each day of data collection: incidence of mortality, individual and group average body weights, and individual and group average tumor volume.

Experiment [4] concerns ALK. The experiment in a line: ALK phosphorylation in ALK mutant and p53 WT neuroblastoma cell lines. In kind it is cell-based. On the procedure:
as §1, §2

Experiment [5] concerns NB-1 Xenograft. The experiment in a line: NB-1 Xenograft, LDK378 single agent and combinations with CGM097 and LEE011 (FIG. 5, FIG. 7). It counts as in vivo. The text has this:
FIG. 5 summarizes data for treatments with LDK378 (ALK inhibitor) and CGM097 (HDM-2/P53 Inhibitor) as single agents and in combination in a NB-1 Xenograft.
FIG. 7 summarizes data for LDK378 Single Agent and Combination Treatments with NVP-CGM097 in a NB-1 Xenograft. […] After treatment termination, tumors resumed growth.

The structures appear in SMILES notation.

In the case of `COc1cc2c(cc1OC(C)C)[C@H](c1ccc(Cl)cc1)N(c1ccc(N(C)C[C@H]3CC[C@H](N4CCN(C)C(=O)C4)CC3)cc1)C(=O)C2` [CGM097, (S)-1-(4-Chloro-phenyl)-7-isopropoxy-6-methoxy-2-(4-{methyl-[4-(4-methyl-3-oxo-piperazin-1-yl)-trans-cyclohexylmethyl]-amino}-phenyl)-1,4-dihydro-2H-isoquinolin-3-one], in experiment [1], the “tumor growth under continuous treatment” value is “continued to grow”. Further, the “induction of p53 and its downstream target genes” value in experiment [2] was “caused induction of p53 and its downstream target genes”.

For the compound `COc1ncc(-c2nc3c(n2C(C)C)[C@H](c2ccc(Cl)cc2)N(c2cc(Cl)cn(C)c2=O)C3=O)c(OC)n1` [Compound C, (S)-5-(5-Chloro-1-methyl-2-oxo-1,2-dihydro-pyridin-3-yl)-6-(4-chloro-phenyl)-2-(2,4-dimethoxy-pyrimidin-5-yl)-1-isopropyl-5,6-dihydro-1H-pyrrolo[3,4-d]imidazol-4-one], the “T/C % on day 25” value in experiment [3] amounted to 50.8%; in experiment [3] (listed as COMPOUND C), 50.80%.

Consider `Cc1cc(Nc2ncc(Cl)c(Nc3ccccc3S(=O)(=O)C(C)C)n2)c(OC(C)C)cc1C1CCNCC1` [LDK378, 5-chloro-N2-(2-isopropoxy-5-methyl-4-(piperidin-4-yl)phenyl)-N4-[2-(propane-2-sulfonyl)-phenyl]-pyrimidine-2,4-diamine], for which the “tumor growth under continuous treatment” value in experiment [1] is listed as “continued to grow”; in experiment [5], “resumed growth before day 41”. In addition, the ALK phosphorylation entry in experiment [4] is “inhibited ALK phosphorylation”. Moreover, the “T/C % on day 25” value in experiment [3] amounted to 27.6%.
